How the values were obtained:
Assay in all cases: relative viability (nuclei count vs DMSO), 5 days (fraction); higher = more cells survive
Bromopyruvate + AZD7762 = compound: C(C(=O)C(=O)O)Br [Bromopyruvate] + NC(=O)Nc1cc(-c2cccc(F)c2)sc1C(=O)N[C@H]1CCCNC1 [AZD7762] (partner 0.2 µM)
In short: (§1)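 A single step with final 0.05% Triton X-100, 1% formaldehyde and 1 ug/ml Hoechst fixed the cells and stained nuclei 5 days after treatment. Lung cancer cell lines in 1536-well plates had been treated by pin tool the day after seeding with one drug alone or a fixed anchor-drug dose plus five library-drug doses (not always all listed) in √10 steps, and nuclei were counted on 4× images. Relative viability is the ratio of nuclei in treated wells to nuclei in vehicle wells, taken as the median of duplicate plates.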

[1] = compound: CC(O)(CS(=O)(=O)c1ccc(F)cc1)C(=O)Nc1ccc(C#N)c(C(F)(F)F)c1 [Bicalutamide] + N=C(N)NC(=N)NCCc1ccccc1 [Phenformin] (partner 250 µM)
In short: as §1

[2] = compound: C(C(=O)C(=O)O)Br [Bromopyruvate] + Cc1cc(Nc2cc(N3CCN(C)CC3)nc(Sc3ccc(NC(=O)C4CC4)cc3)n2)n[nH]1 [Tozasertib] (partner 0.1 µM)
In short: as §1

[3] = compound: C(C(=O)C(=O)O)Br [Bromopyruvate] + Nc1nc2[nH]cc(CCc3ccc(C(=O)N[C@@H](CCC(=O)O)C(=O)O)cc3)c2c(=O)[nH]1 [Pemetrexed] (partner 0.2 µM)
In short: as §1

Cell Line	relative viability (Bromopyruvate + AZD7762; first compound 1 µM)	relative viability (Bromopyruvate + AZD7762; first compound 3.162 µM)	relative viability (Bromopyruvate + AZD7762; first compound 10 µM)	relative viability (Bromopyruvate + AZD7762; first compound 31.62 µM)	relative viability (Bromopyruvate + AZD7762; first compound 100 µM)	relative viability ([1]; first compound 0.08 µM)	relative viability ([1]; first compound 0.253 µM)	relative viability ([1]; first compound 0.8 µM)	relative viability ([1]; first compound 2.53 µM)	relative viability ([2]; first compound 1 µM)	relative viability ([2]; first compound 3.162 µM)	relative viability ([2]; first compound 10 µM)	relative viability ([2]; first compound 31.62 µM)	relative viability ([2]; first compound 100 µM)	relative viability ([3]; first compound 1 µM)	relative viability ([3]; first compound 3.162 µM)	relative viability ([3]; first compound 10 µM)	relative viability ([3]; first compound 31.62 µM)	relative viability ([3]; first compound 100 µM)
LXF-289	1.07	1.12	1.08	1.07	1.26	0.596	0.481	0.55	0.519	0.184	0.179	0.213	0.152	0.172	0.874	0.92	0.899	0.958	0.941
NCI-H23	0.27	0.22	0.249	0.206	0.251	0.851	0.694	0.883	0.765	0.347	0.388	0.361	0.291	0.105	0.71	0.76	0.808	0.619	0.812
NCI-H322M	0.623	0.58	0.523	0.581	0.628	0.821	0.789	0.904	0.859	0.433	0.546	0.495	0.461	0.484	0.614	0.663	0.592	0.585	0.637
NCI-H358	0.656	0.578	0.609	0.505	0.555	0.336	0.344	0.401	0.35	0.0956	0.115	0.104	0.0945	0.0906	0.147	0.145	0.164	0.17	0.183
NCI-H441	1.01	1.18	1.06	0.978	1.14	0.849	0.745	1.09	0.683	0.597	0.614	0.605	0.615	0.565	0.255	0.282	0.299	0.274	0.271
NCI-H460	0.676	0.698	0.721	0.565	0.621	0.559	0.524	0.834	0.52	0.432	0.485	0.426	0.424	0.335	0.0598	0.078	0.0595	0.0647	0.0655
NCI-H522	0.874	0.861	0.821	1.05	0.755	0.659	0.649	0.622	0.661	0.616	0.549	0.547	0.485	0.391	0.902	1.25	1.24	1.07	1.11
NCI-H596	1.08	1.28	1.12	1.17	0.993	0.586	0.643	0.794	0.897	0.83	0.943	1.1	0.878	0.412	0.546	0.522	0.55	0.48	0.59
NCI-H647	0.565	0.63	0.405	0.553	0.568	0.646	0.596	0.758	0.385	0.289	0.221	0.29	0.298	0.389	0.17	0.162	0.156	0.184	0.177
NCI-H650	0.931	1.18	0.934	1.05	0.945	0.52	0.433	0.466	0.395	0.656	0.756	0.804	0.714	0.698	0.971	0.924	0.81	0.989	0.941
NCI-H838	0.914	0.913	1.02	0.949	0.935	0.588	0.573	0.748	0.337	0.268	0.291	0.305	0.242	0.293	0.244	0.274	0.242	0.232	0.245
NCI-H1355	0.744	0.882	0.664	0.737	0.648	0.456	0.44	0.481	0.492	0.529	0.577	0.516	0.548	0.574	1.08	1.12	1.14	1.08	1.08
NCI-H1395	0.447	0.398	0.426	0.414	0.42	0.467	0.417	0.478	0.446	0.757	0.788	0.834	0.718	0.751	0.978	0.917	0.884	0.847	0.928
NCI-H1437	1.15	1.1	1.22	1.12	1.14	0.341	0.264	0.422	0.309	0.384	0.414	0.447	0.397	0.451	0.307	0.315	0.339	0.329	0.337
NCI-H1651	0.441	0.491	0.474	0.403	0.4	0.36	0.377	0.411	0.345	0.634	0.718	0.665	0.701	0.652	0.551	0.583	0.582	0.527	0.579
NCI-H1666	0.966	0.843	0.878	0.872	0.766	0.613	0.541	0.569	0.537	0.644	0.722	0.543	0.603	0.51	0.834	0.896	1.02	0.859	0.855
NCI-H1734	0.536	0.7	0.694	0.53	0.544	0.41	0.338	0.458	0.416	0.243	0.247	0.307	0.244	0.216	0.391	0.398	0.395	0.466	0.408

Source: the supplement of paper PMC10307832
